Paper PMC9544318, “Advanced Pyrrolidine‐Carbamate Self‐Immolative Spacer with Tertiary Amine Handle Induces Superfast Cyclative Drug Release” (Chemmedchem, 2022)

How the values were obtained:
Format in all cases: physicochemical
[1] = Carbamate cleavage study of SI spacer-CPT modules (CPT release by HPLC); settings: for half-life at 1 mM: CPT release by HPLC, read-out: carbamate half-life (t1/2) (converted)
Excerpt: We undertook the structural optimization of the pyrrolidine‐carbamate SI spacer Sp2, aimed at decreasing the carbamate half‐life (t 1/2) for a faster hydroxy cargo release. The molecular structures of the synthesized SI spacers are reported in Figure 2 (all synthetic procedures are reported in the Supporting Information). Here, the Sp2 pyrrolidine ring was replaced by either a piperidine (in Sp4) or an isoxazolidine (in Sp5) cycle. In particular, Sp4 was designed to assess the impact of the cyclic amine ring size on the SI spacer degradation.[20] On the other hand, the use of an isoxazolidine ring in Sp5 aimed at evaluating the contribution of the “α‐effect” to the spacer reactivity.[21] While Sp4 was prepared starting from racemic 2‐piperidinecarbaldehyde, the synthesis of Sp5 was inspired by Bode's route to 5‐oxaproline.[22] Moreover, as we recently observed the inhibitory effects on the spacer cyclization given by a phosphate monoester group,[23] we devised the SI spacer modification with a basic handle. Since at physiological pH (approximately 7.4) the pyrrolidine is mostly present as protonated species, a second amine handle may force the pyrrolidine deprotonation, thus lowering its pK a value and increasing its nucleophilic character.[24] To this end, SI spacers Sp3 and Sp6/8 were endowed with a tertiary amine handle connected either at the carbamate N atom (in Sp3 and Sp7) or at the pyrrolidine ring (in Sp6 and Sp8). While the former spacers were rapidly obtained by reductive amination of Boc‐L‐prolinal, the latter were prepared by multistep synthesis, starting from oxygenated proline derivatives, such as 4‐oxo‐L‐proline and hydroxyproline. Firstly, the exocyclic secondary amine of SI spacers Sp3/8 was conjugated to the tertiary hydroxy group of the anticancer drug Camptothecin (CPT) via carbamate bond. As described recently,[19, 23] the final spacer‐drug modules Sp3/8‐CPT (Figure 2) were isolated as trifluoroacetate salts. These compounds were dissolved in a DMSO/phosphate buffer (pH 7.5) mixture and incubated at 37 °C, followed by aliquot collection at different time points and CPT release analysis by HPLC. The percentage of intact carbamate calculated from peak integrals was plotted versus time, and the spacer cyclization rates were estimated in terms of carbamate half‐life (t 1/2).
Carbamate Cleavage Studies
Experimental Procedure for Sp-CPT Modules
Stock solutions of lyophilized SI spacer-CPT modules (concentration: 10 mM in DMSO) were diluted 1:10 (final concentration: 1 mM) with 25 mM phosphate buffer (pH 7.4). Immediately after preparation, the mixtures were incubated at 37 °C. Aliquots were collected at different time points and diluted 1:4 (final concentration: 250 μ M) with a blocking buffer (8:2 H2O/CH3CN + 0.2% TFA).
The diluted aliquots were injected into an analytical HPLC-PDA system (see Materials and Methods), using the following parameters: […]
Gradient From 10% B to 50% B in 26 min.
Areas under the curve (AUC) of the detected peaks were measured using software associated to the HPLC systems. The rate of free OH release from the starting carbamate were obtained by calculating the relative ratios of AUC values corresponding to the amine -bearing prodrug and the free payload. Data were plotted versus time and half-lives (t1/2) were calculated by non -linear fitting (exponential, one-phase decay) using GraphPad Prism software .
(1 picture or pasted object on this page, not shown here)

[2] = CPT release under acidic conditions (acetate buffer, pH 5) mimicking the lysosomal compartment; settings: for carbamate stability under acidic conditions: compared with pH 7.5
Protocol: [26] The release of free CPT was also studied upon Sp2-CPT and Sp3-CPT incubation under more acidic conditions (acetate buffer, pH 5), mimicking the lysosomal compartment.

[3] = Solubility observed in aqueous buffer/DMSO mixture of the release study
Protocol: [25] The stability of carbamate Sp4-CPT may be ascribed to a suboptimal conformation of the piperidine spacer compared to the native pyrrolidine. […] The stability of Sp5-CPT was also analysed in a phosphate buffer solution at pH 7.5, with DMSO content increased to 20 % DMSO.

[4] = DMSO/phosphate buffer (pH 7.5), 37 °C

SMILES | half-life at 1 mM [1, 4] [h] | carbamate stability under acidic conditions [2] | further results
CC[C@@]1(OC(=O)N(C)C[C@@H]2CCCN2)C(=O)OCc2c1cc1n(c2=O)Cc2cc3ccccc3nc2-1 [Sp2-CPT, reference compound] | 3.6 | much more stable | –
CC[C@@]1(OC(=O)N(CCN(C)C)C[C@@H]2CCCN2)C(=O)OCc2c1cc1n(c2=O)Cc2cc3ccccc3nc2-1 [Sp3-CPT] | 0.9 | much more stable | half-life compared with reference Sp2-CPT [1, 4]: four times shorter; drug release activity under acidic conditions ([2]; compared with Sp2 reference): consistently higher drug release activity than the Sp2 reference
CC[C@@]1(OC(=O)N(C)C[C@@H]2CCON2)C(=O)OCc2c1cc1n(c2=O)Cc2cc3ccccc3nc2-1 [Sp5-CPT] | – | – | cyclative carbamate cleavage (CPT release) [1, 4]: complete inhibition of the cyclative carbamate cleavage; CPT release ([1]; phosphate buffer pH 7.5, 20 % DMSO): no CPT release was observed; solubility ([3]; 9 : 1 aqueous buffer/DMSO mixture, pH 7.5): partially insoluble; solubility ([3]; phosphate buffer pH 7.5, DMSO content increased to 20 %): perfectly soluble
CC[C@@]1(OC(=O)N(C)C[C@@H]2C[C@H](N(C)C)CN2)C(=O)OCc2c1cc1n(c2=O)Cc2cc3ccccc3nc2-1 [Sp6-CPT] | 5.5 | – | –
CC[C@@]1(OC(=O)N(CCCN(C)C)C[C@@H]2CCCN2)C(=O)OCc2c1cc1n(c2=O)Cc2cc3ccccc3nc2-1 [Sp7-CPT] | 3.3 | – | –
CC[C@@]1(OC(=O)N(C)C[C@@H]2C[C@@H](OCCN(C)C)CN2)C(=O)OCc2c1cc1n(c2=O)Cc2cc3ccccc3nc2-1 [Sp8-CPT] | 3.2 | – | –
